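Following 48 hours of exposure in 96-well plates, responses at five concentrations were used to interpolate endpoints linearly. Definition used: TGI = concentration required for complete inhibition of growth.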
Key:
Experiment in all cases: DTP human tumour cell line panel, 48 h
ACHN renal = system: ACHN renal
CAKI-1 renal = system: CAKI-1 renal
HCT-15 colon = system: HCT-15 colon
HL-60(TB) leukemia = system: HL-60(TB) leukemia
HOP-62 NSCLC = system: HOP-62 NSCLC
HOP-92 NSCLC = system: HOP-92 NSCLC
HS 578T breast = system: HS 578T breast
MALME-3M melanoma = system: MALME-3M melanoma
MDA-N = system: MDA-N
NCI/ADR-RES ovarian = system: NCI/ADR-RES ovarian
OVCAR-3 ovarian = system: OVCAR-3 ovarian
OVCAR-8 ovarian = system: OVCAR-8 ovarian
RPMI-8226 leukemia = system: RPMI-8226 leukemia
SF-539 CNS = system: SF-539 CNS
SK-MEL-28 melanoma = system: SK-MEL-28 melanoma
SR leukemia = system: SR leukemia
SW-620 colon = system: SW-620 colon
U251 CNS = system: U251 CNS

Row | SMILES | TGI (ACHN renal) [µM] | TGI (CAKI-1 renal) [µM] | TGI (HCT-15 colon) [µM] | TGI (HL-60(TB) leukemia) [µM] | TGI (HOP-62 NSCLC) [µM] | TGI (HOP-92 NSCLC) [µM] | TGI (HS 578T breast) [µM] | TGI (MALME-3M melanoma) [µM] | TGI (MDA-N) [µM] | TGI (NCI/ADR-RES ovarian) [µM] | TGI (OVCAR-3 ovarian) [µM] | TGI (OVCAR-8 ovarian) [µM] | TGI (RPMI-8226 leukemia) [µM] | TGI (SF-539 CNS) [µM] | TGI (SK-MEL-28 melanoma) [µM] | TGI (SR leukemia) [µM] | TGI (SW-620 colon) [µM] | TGI (U251 CNS) [µM]
1 | O=c1[nH]nc(-c2ccccc2)n1/N=C/c1ccc([N+](=O)[O-])cc1 | > 100 | > 59.3 | > 100 | > 100 | 25.8 | 32 | 98.2 | > 100 | > 100 | > 68.9 | > 100 | 37.1 | > 100 | > 100 | > 100 | > 100 | > 100 | 20.8
2 | COc1cc2ncnc(Nc3cccc(Cl)c3)c2cc1OC | 54.5 | 25.5 | 52.8 | 62.4 | 58.7 | 38.9 | 25 | 19.8 | 42.6 | 20.3 | 35.8 | 26.1 | 42.3 | 32.8 | 42.6 | 24.1 | 45 | 79.4
3 | COC(=O)C1=C(O)C(C(=O)OC)[C@]2(O)[C@H](C(=O)OC)[C@H]1C[C@@H](c1ccc(OC)c(OC)c1)[C@H]2C(=O)OC (stereo not given in full) | > 100 | > 100 | 36.5 | 62.9 | > 100 | > 100 | > 100 | – | > 100 | 54.5 | 62.5 | 31.1 | 19.1 | 20.7 | 90.7 | 46.6 | > 100 | 25.3
4 | CCOC(=O)c1cc2c([nH]1)c(O)cc1c2ccn1Cc1ccccc1 | – | 36.8 | 30.5 | 33.9 | 38.7 | 27.7 | 77.4 | 36.8 | 29.5 | 38.5 | 31.6 | 33.4 | 27.9 | 40.2 | 33.8 | 16.9 | 40.6 | 31.6
5 | Clc1ccccc1-c1nc2ccc(C34CC5CC(CC(C5)C3)C4)cc2[nH]1 | 28.8 | > 100 | > 100 | > 100 | 34.9 | 27.1 | 89.9 | 98.5 | > 100 | > 100 | – | 22.8 | > 100 | – | > 100 | 40.5 | > 100 | 20.5
6 | O=C(O)c1ccccc1/C=N/NC1=NCCN1 | > 100 | – | > 100 | > 100 | > 100 | 91.9 | > 100 | > 100 | > 100 | > 100 | > 100 | > 100 | > 100 | > 100 | > 100 | > 100 | > 100 | > 100
7 | CC(=O)c1sc2c(c1OC(=O)c1ccco1)c(=O)n(-c1ccccc1)c(=S)n2-c1ccccc1 | – | > 100 | 41.9 | 45 | 66.8 | 22 | 20 | 37.9 | 82.6 | 51.2 | > 100 | > 100 | 41.6 | 20.6 | 61.9 | 72.2 | > 100 | 88.1
8 | O=C1CCC2(c3ccccc3)Nc3ccncc3N12 (stereo not given) | > 10 | – | > 10 | > 10 | – | > 10 | > 10 | > 10 | > 10 | > 10 | > 10 | > 10 | – | > 10 | – | > 10 | > 10 | > 10
9 | O=C1c2[nH]c3ccc(Br)cc3c2CCN1Cc1ccc(Cl)cc1 | 22.7 | 34.4 | 18.1 | 99.1 | 26.4 | 33.4 | 43.3 | 33.7 | 30.7 | 40.6 | 28.5 | 48.5 | – | 25.5 | 31.6 | 44.5 | 34.8 | 26.8
10 | N#Cc1c(=O)n(-c2ccccc2)c(O)c2c(N)n[nH]c12 | – | > 100 | > 100 | > 100 | – | > 100 | > 100 | > 100 | > 100 | > 100 | > 100 | > 100 | > 100 | > 100 | > 100 | > 100 | > 100 | > 100
11 | c1ccc(-c2nc3ccccc3n3c(CN4CCCCC4)nnc23)cc1 | > 100 | > 100 | > 100 | – | > 100 | > 100 | > 100 | > 100 | > 100 | > 100 | > 100 | > 100 | > 100 | > 100 | > 100 | > 100 | > 100 | > 100
12 | Nc1nc(I)nc2c1ncn2C1OC(COS(N)(=O)=O)C(O)C1O (stereo not given) | 0.211 | 0.129 | 0.305 | – | 0.0836 | 0.0464 | 0.0273 | < 0.01 | 0.0135 | < 0.0125 | 0.012 | < 0.0106 | 0.172 | < 0.014 | 0.0148 | < 0.01 | 0.165 | 0.0243
13 | Cc1cc(C)c2c(O)c(S(=O)(=O)c3ccc(Cl)cc3)c(=O)oc2c1 | – | > 100 | > 100 | > 100 | > 100 | > 100 | > 100 | > 100 | > 100 | > 100 | > 100 | > 100 | > 100 | > 100 | > 100 | > 100 | > 100 | > 100
14 | Cc1nc(-c2cc3c(ccc4ccccc43)oc2=O)cs1 | > 100 | > 100 | > 100 | > 100 | > 100 | 89.5 | 99.3 | > 100 | > 100 | > 100 | – | > 100 | > 100 | > 100 | > 100 | > 100 | > 100 | > 100

Reference: PubChem BioAssay (NCI)
